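Cells were grown in 96-well plates and exposed to each compound for 48 hours at five concentrations; endpoints were interpolated linearly between bracketing concentrations, or set to the highest concentration if not reached. GI50 marks 50% less growth.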 Calls of active or inactive are those of the source. Cut-off read from the data, not from the text of the source: active = GI50 up to about 1.1 µM and inactive = higher.
Experiments:
Test in all cases: growth of human tumour cells (NCI), 48 h
Malme-3M = test system: Malme-3M
HOP-62 = test system: HOP-62
M19-MEL = test system: M19-MEL
KM12 = test system: KM12
MCF7 = test system: MCF7
RXF 393 = test system: RXF 393
KM-20L2 = test system: KM-20L2
NCI/ADR-RES = test system: NCI/ADR-RES
DLD-1 = test system: DLD-1
HOP-18 = test system: HOP-18
A498 = test system: A498
SW-620 = test system: SW-620
NCI-H460 = test system: NCI-H460
SF-539 = test system: SF-539
TK-10 = test system: TK-10
LXFL 529 = test system: LXFL 529
SR = test system: SR
ACHN = test system: ACHN
BT-549 = test system: BT-549
PC-3 = test system: PC-3

Structure (SMILES)	GI50 (Malme-3M)	GI50 (HOP-62)	GI50 (M19-MEL)	GI50 (KM12)	GI50 (MCF7)	GI50 (RXF 393)	GI50 (KM-20L2)	GI50 (NCI/ADR-RES)	GI50 (DLD-1)	GI50 (HOP-18)	GI50 (A498)	GI50 (SW-620)	GI50 (NCI-H460)	GI50 (SF-539)	GI50 (TK-10)	GI50 (LXFL 529)	GI50 (SR)	GI50 (ACHN)	GI50 (BT-549)	GI50 (PC-3)
CC(=O)NC(Cc1ccsc1)C(=O)O (centres undefined)	> 100 µM (inactive)	> 100 µM (inactive)	> 100 µM (inactive)	> 100 µM (inactive)	> 100 µM (inactive)	> 100 µM (inactive)	> 100 µM (inactive)	> 100 µM (inactive)	> 100 µM (inactive)	> 100 µM (inactive)	> 100 µM (inactive)	> 100 µM (inactive)	> 100 µM (inactive)	> 100 µM (inactive)						
O=S(=O)(SCc1ccccc1)C(c1ccccc1)c1ccccc1	36.1 µM (inactive)	> 100 µM (inactive)	32.4 µM (inactive)	34.1 µM (inactive)		21.9 µM (inactive)	20.6 µM (inactive)		13.2 µM (inactive)		29.6 µM (inactive)	7.4 µM (inactive)	37 µM (inactive)	17.2 µM (inactive)	> 100 µM (inactive)	26.5 µM (inactive)	15.2 µM (inactive)	37.8 µM (inactive)		
O=c1cc(-c2ccccc2)[nH]c2c(Cl)cccc12	64.9 µM (inactive)	7.26 µM (inactive)	9.18 µM (inactive)			15.7 µM (inactive)	14.4 µM (inactive)		20.5 µM (inactive)		14.2 µM (inactive)	3.86 µM (inactive)	8.2 µM (inactive)	15.3 µM (inactive)	> 100 µM (inactive)	31.5 µM (inactive)	7.53 µM (inactive)	78 µM (inactive)		
Cc1ccc(N(O)C(C)(C)C)cc1	> 100 µM (inactive)	> 100 µM (inactive)	> 100 µM (inactive)	> 100 µM (inactive)	> 100 µM (inactive)	> 100 µM (inactive)	> 100 µM (inactive)	> 100 µM (inactive)	> 100 µM (inactive)	> 100 µM (inactive)	> 100 µM (inactive)	> 100 µM (inactive)	> 100 µM (inactive)	> 100 µM (inactive)						
CCOC(=O)CNC(=O)c1nc[nH]c1/N=N/N(C)C	> 100 µM (inactive)	> 100 µM (inactive)	> 100 µM (inactive)	> 100 µM (inactive)					> 100 µM (inactive)		> 100 µM (inactive)	> 100 µM (inactive)	> 100 µM (inactive)	> 100 µM (inactive)	> 100 µM (inactive)	> 100 µM (inactive)	> 100 µM (inactive)	> 100 µM (inactive)		
CCN(CC)c1ccc2cc(C(=O)Nc3ccc4[nH]c(C(=O)N5C[C@@H](CCl)c6c5cc(OC(=O)Nc5ccccc5)c5[nH]cc(C)c65)cc4c3)oc2c1 [CARZELESIN]	0.000256 µM (active)	0.000171 µM (active)	0.000316 µM (active)	678 µM (inactive)	9.25e-05 µM (active)	0.000201 µM (active)	944 µM (inactive)			< 0.1 µM (active)	0.00024 µM (active)	0.000321 µM (active)	9.08e-05 µM (active)	318 µM (inactive)						
CC1CC2(S(=O)(=O)c3ccccc3)ON1CC2S(=O)(=O)c1ccccc1 (centres undefined)	> 100 µM (inactive)	> 100 µM (inactive)	> 100 µM (inactive)	> 100 µM (inactive)		> 100 µM (inactive)	> 100 µM (inactive)		> 100 µM (inactive)			> 100 µM (inactive)	> 100 µM (inactive)	42.3 µM (inactive)	> 100 µM (inactive)	> 100 µM (inactive)	> 100 µM (inactive)	> 100 µM (inactive)		
CC1(C)OC2COC3(CNO)OC(C)(C)OC3C2O1 (centres undefined)	> 100 µM (inactive)	> 100 µM (inactive)	> 100 µM (inactive)	> 100 µM (inactive)		> 100 µM (inactive)			> 100 µM (inactive)	> 100 µM (inactive)	> 100 µM (inactive)	> 100 µM (inactive)	> 100 µM (inactive)	> 100 µM (inactive)	> 100 µM (inactive)			> 100 µM (inactive)		
N#CC(C(=O)CCC(=O)Nc1ccc(Cl)cc1)c1ccccc1Cl (centres undefined)	> 100 µM (inactive)		> 100 µM (inactive)	43.1 µM (inactive)			17.1 µM (inactive)		74.1 µM (inactive)		> 100 µM (inactive)	> 100 µM (inactive)	> 100 µM (inactive)	> 100 µM (inactive)	> 100 µM (inactive)	13.4 µM (inactive)		54.8 µM (inactive)		
CC(=O)/C=C/c1c[nH]c(=O)[nH]c1=O	243 µM (inactive)	303 µM (inactive)	390 µM (inactive)	187 µM (inactive)	157 µM (inactive)	126 µM (inactive)	213 µM (inactive)	151 µM (inactive)	179 µM (inactive)	155 µM (inactive)	214 µM (inactive)	223 µM (inactive)	186 µM (inactive)	214 µM (inactive)						
N=C(N)NS(=O)(=O)c1ccc(Nc2c3ccccc3nc3c(C(=O)N4CCN(CCO)CC4)ccc(Cl)c23)cc1	> 100 µM (inactive)	> 100 µM (inactive)	> 100 µM (inactive)	> 100 µM (inactive)		> 100 µM (inactive)	> 100 µM (inactive)		> 100 µM (inactive)		> 100 µM (inactive)		> 100 µM (inactive)	> 100 µM (inactive)	> 100 µM (inactive)			> 100 µM (inactive)		
Clc1ccc(-c2cn3c(nc4ccccc43)c(/C=C/c3cccs3)n2)cc1	> 100 µM (inactive)	> 100 µM (inactive)		33.7 µM (inactive)	7.08 µM (inactive)	> 100 µM (inactive)		> 100 µM (inactive)			> 100 µM (inactive)	> 100 µM (inactive)	67.8 µM (inactive)	> 100 µM (inactive)	86.1 µM (inactive)		5.09 µM (inactive)	> 100 µM (inactive)	> 100 µM (inactive)	44.9 µM (inactive)
C[C@]12C[C@H](O)[C@H]3[C@@H](CCC4=CC(=O)CC[C@@]43C)[C@@H]1CC[C@@H]2c1csc(-c2ccccc2)n1	> 44.2 µM (inactive)	9.53 µM (inactive)		> 46.7 µM (inactive)	> 23 µM (inactive)	72.4 µM (inactive)		46.6 µM (inactive)			> 39 µM (inactive)	39.5 µM (inactive)	5.85 µM (inactive)	62.5 µM (inactive)	26.1 µM (inactive)		3.21 µM (inactive)	> 50.6 µM (inactive)	> 100 µM (inactive)	3.32 µM (inactive)
O=C(/C=C/c1ccc(O)c(O)c1)O[C@H]1CCCC[C@@H]1OC(=O)/C=C/c1ccc(O)c(O)c1	15.7 µM (inactive)	9.77 µM (inactive)		20.7 µM (inactive)	19.2 µM (inactive)	10.5 µM (inactive)		21.8 µM (inactive)			22.3 µM (inactive)	3.52 µM (inactive)	5.14 µM (inactive)	11.1 µM (inactive)	14.9 µM (inactive)		5.87 µM (inactive)	7.98 µM (inactive)	17.5 µM (inactive)	15.6 µM (inactive)
O=[N+]([O-])c1cc2ncc(-c3ccccc3)c(O)c2cc1/C(Cl)=C/c1ccccc1		16.3 µM (inactive)	11.6 µM (inactive)	9.12 µM (inactive)	5.02 µM (inactive)	8.17 µM (inactive)	17.7 µM (inactive)	4.93 µM (inactive)	3.83 µM (inactive)	2.11 µM (inactive)	16.1 µM (inactive)	6.71 µM (inactive)	9.16 µM (inactive)	11.6 µM (inactive)						
CCOc1ccccc1NC(=O)CC(C(=O)OC)C(=O)C(=O)OC (centres undefined)	> 100 µM (inactive)	> 100 µM (inactive)	> 100 µM (inactive)	> 100 µM (inactive)		> 100 µM (inactive)	> 100 µM (inactive)			> 100 µM (inactive)	> 100 µM (inactive)	> 100 µM (inactive)	> 100 µM (inactive)	> 100 µM (inactive)	> 100 µM (inactive)	> 100 µM (inactive)	> 100 µM (inactive)	> 100 µM (inactive)		
CC(=O)NNc1nc(C)c(C(=O)NNC(=O)C(=O)Nc2nc3ccc([N+](=O)[O-])cc3s2)s1	35 µM (inactive)	> 82.6 µM (inactive)	45.5 µM (inactive)	33.9 µM (inactive)	31 µM (inactive)	> 59.8 µM (inactive)	> 100 µM (inactive)	53.5 µM (inactive)	46.1 µM (inactive)		33.6 µM (inactive)	> 65.9 µM (inactive)	49 µM (inactive)	44.7 µM (inactive)	50.4 µM (inactive)	49.9 µM (inactive)	26.4 µM (inactive)	50.4 µM (inactive)	45.8 µM (inactive)	26.9 µM (inactive)
N#CC(C#N)=Cc1c[nH]c(=O)[nH]c1=O	6.35 µM (inactive)	> 100 µM (inactive)		> 100 µM (inactive)	> 100 µM (inactive)	> 100 µM (inactive)		> 100 µM (inactive)			> 100 µM (inactive)	54.2 µM (inactive)	> 100 µM (inactive)	> 100 µM (inactive)	> 100 µM (inactive)		0.152 µM (active)	> 100 µM (inactive)	> 100 µM (inactive)	> 100 µM (inactive)
CS(=O)(=O)OCCCCOS(=O)(=O)CF	> 46.5 µM (inactive)	> 100 µM (inactive)		> 100 µM (inactive)	> 95.1 µM (inactive)	> 100 µM (inactive)		> 100 µM (inactive)			> 100 µM (inactive)	> 100 µM (inactive)	56 µM (inactive)	> 100 µM (inactive)	> 100 µM (inactive)		> 73.3 µM (inactive)	52.6 µM (inactive)	> 100 µM (inactive)	> 100 µM (inactive)

Reference: ChEMBL document CHEMBL1201862, “PubChem BioAssay data set” (2004)
